According to ChEMBL document CHEMBL1201862, “PubChem BioAssay data set” (2004):
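Briefly, cells in 96-well plates were exposed to five compound concentrations for 48 h, and endpoints were estimated by linear interpolation. GI50: concentration for 50% inhibition of growth.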 Activity calls are given as the source filed them. No stated cut-off is given here; in the data, active = GI50 up to about 1.1 µM and inactive = higher.

Tests used:
Test in all cases: DTP human tumour cell line panel, 48 h
ACHN = test system: ACHN
BT-549 = test system: BT-549
DU-145 = test system: DU-145
HCC 2998 = test system: HCC 2998
HCT-116 = test system: HCT-116
HOP-92 = test system: HOP-92
K562 = test system: K562
KM12 = test system: KM12
MDA-MB-231 = test system: MDA-MB-231
MDA-N = test system: MDA-N
NCI-H460 = test system: NCI-H460
OVCAR-4 = test system: OVCAR-4
PC-3 = test system: PC-3
RPMI-8226 = test system: RPMI-8226
RXF 393 = test system: RXF 393
SK-MEL-28 = test system: SK-MEL-28
SK-MEL-2 = test system: SK-MEL-2
SK-MEL-5 = test system: SK-MEL-5
UACC-62 = test system: UACC-62
DMS-114 = test system: DMS-114

Structure (SMILES) | GI50 (ACHN) | GI50 (BT-549) | GI50 (DU-145) | GI50 (HCC 2998) | GI50 (HCT-116) | GI50 (HOP-92) | GI50 (K562) | GI50 (KM12) | GI50 (MDA-MB-231) | GI50 (MDA-N) | GI50 (NCI-H460) | GI50 (OVCAR-4) | GI50 (PC-3) | GI50 (RPMI-8226) | GI50 (RXF 393) | GI50 (SK-MEL-28) | GI50 (SK-MEL-2) | GI50 (SK-MEL-5) | GI50 (UACC-62) | GI50 (DMS-114)
COc1ccc(Nc2c(C#N)c3n(c4ccccc24)c2ccccc2[n+]3C)cc1OC | 1.96 µM (inactive) | 7.33 µM (inactive) | 2.81 µM (inactive) | 4.17 µM (inactive) | 1.61 µM (inactive) | 9.44 µM (inactive) | 2.33 µM (inactive) | 3.98 µM (inactive) | 1.73 µM (inactive) | 2.7 µM (inactive) | 1.93 µM (inactive) | 4.68 µM (inactive) | 2.33 µM (inactive) | 1.98 µM (inactive) | 2.82 µM (inactive) | 4.43 µM (inactive) | 3.86 µM (inactive) | 3.49 µM (inactive) | 3.15 µM (inactive) | 
Nc1nc2ccc(OCC(O)CN3CCCCC3)cc2[n+]([O-])n1 (stereo not drawn) | > 100 µM (inactive) | > 100 µM (inactive) | > 100 µM (inactive) | > 100 µM (inactive) | > 100 µM (inactive) | > 100 µM (inactive) | > 100 µM (inactive) | > 100 µM (inactive) | > 100 µM (inactive) | > 100 µM (inactive) | > 100 µM (inactive) | > 100 µM (inactive) | > 100 µM (inactive) | > 100 µM (inactive) | > 100 µM (inactive) | > 100 µM (inactive) | > 100 µM (inactive) | > 100 µM (inactive) |  | 
COc1cc2c(c(OC)c1OC)C(=O)[C@H](Br)[C@H]2NC(=O)NCCCl | > 100 µM (inactive) | 38.6 µM (inactive) | > 100 µM (inactive) | > 100 µM (inactive) | 82.6 µM (inactive) | > 100 µM (inactive) | 58.2 µM (inactive) | 72.8 µM (inactive) | > 100 µM (inactive) | 35.2 µM (inactive) | 80.4 µM (inactive) | 71 µM (inactive) | > 100 µM (inactive) | > 100 µM (inactive) | 97.1 µM (inactive) | > 100 µM (inactive) | > 100 µM (inactive) | 37.2 µM (inactive) | 73.3 µM (inactive) | 
CCOC(=O)CC(NC(=O)c1nc[nH]c1[N+](=O)[O-])C(=O)OCC (stereo not drawn) | 42.2 µM (inactive) |  |  | 30.5 µM (inactive) | 43.4 µM (inactive) |  | 38.2 µM (inactive) | 65.8 µM (inactive) |  |  | 52 µM (inactive) | 50.7 µM (inactive) |  | 29.2 µM (inactive) |  | > 100 µM (inactive) | 92.7 µM (inactive) | 56 µM (inactive) | 66.1 µM (inactive) | 43.3 µM (inactive)
CCCC(=O)NC(Nc1ccc(S(=O)(=O)Nc2cc(C)on2)cc1)(C(=O)OCC)C(F)(F)F (stereo not drawn) | > 100 µM (inactive) | > 100 µM (inactive) | > 100 µM (inactive) | > 100 µM (inactive) | > 100 µM (inactive) | > 100 µM (inactive) | > 100 µM (inactive) | > 100 µM (inactive) | > 100 µM (inactive) | > 100 µM (inactive) |  | > 100 µM (inactive) | > 100 µM (inactive) | > 100 µM (inactive) | > 100 µM (inactive) | > 100 µM (inactive) | > 100 µM (inactive) | > 100 µM (inactive) | > 100 µM (inactive) | 
CCOC(=O)N1CCC2(CC1)CC(=O)N(Nc1ccccc1)C2=O | 9.71 µM (inactive) | > 100 µM (inactive) | > 100 µM (inactive) | > 100 µM (inactive) | > 100 µM (inactive) | > 100 µM (inactive) | 16.9 µM (inactive) | 92.7 µM (inactive) | > 100 µM (inactive) | 78.3 µM (inactive) | 94.4 µM (inactive) | > 100 µM (inactive) | 40.6 µM (inactive) | > 100 µM (inactive) | > 100 µM (inactive) | 74.3 µM (inactive) | > 100 µM (inactive) | > 100 µM (inactive) | 32.1 µM (inactive) | 
CC1(C)CC2(C)ON=C(c3ccccc3)N2c2ccccc2N1 (stereo not drawn) | 19.5 µM (inactive) | 17.8 µM (inactive) | 33.1 µM (inactive) | 35.2 µM (inactive) | 14.8 µM (inactive) | 21.6 µM (inactive) | 19.8 µM (inactive) | 30.6 µM (inactive) | 14.4 µM (inactive) | 21.2 µM (inactive) | 20.9 µM (inactive) | 39.8 µM (inactive) | 14.8 µM (inactive) | 29 µM (inactive) | 20.8 µM (inactive) | 23 µM (inactive) | 20.9 µM (inactive) | 16.7 µM (inactive) | 14.1 µM (inactive) | 
O=C1CCN2CCC(=O)c3c2c(cc2ccccc32)N1 | > 100 µM (inactive) |  |  | > 100 µM (inactive) | > 100 µM (inactive) |  | > 100 µM (inactive) | > 100 µM (inactive) |  |  | > 100 µM (inactive) |  |  | > 100 µM (inactive) | 44.7 µM (inactive) |  | > 100 µM (inactive) | > 100 µM (inactive) | > 100 µM (inactive) | > 100 µM (inactive)
O=N/N=c1\o[n-][n+](CCc2ccccc2)c1Cc1/c(=N/N=O)o[n-][n+]1CCc1ccccc1 | 31.4 µM (inactive) | 32.9 µM (inactive) | 55.5 µM (inactive) | 44.9 µM (inactive) | 50.1 µM (inactive) | 27.1 µM (inactive) | 25.2 µM (inactive) | 78.2 µM (inactive) | 33.9 µM (inactive) | 80.9 µM (inactive) | 33.7 µM (inactive) | 16.8 µM (inactive) | 33.8 µM (inactive) | 43.1 µM (inactive) | 39.2 µM (inactive) | 55.6 µM (inactive) | 29.6 µM (inactive) | 31.2 µM (inactive) | 51.2 µM (inactive) | 
CCOC(=O)c1nc(-c2ccccc2)oc1OCC |  |  |  | > 100 µM (inactive) | > 100 µM (inactive) |  | 74.1 µM (inactive) | > 100 µM (inactive) |  |  | > 100 µM (inactive) | > 100 µM (inactive) |  | 92.7 µM (inactive) | > 100 µM (inactive) | > 100 µM (inactive) |  | > 100 µM (inactive) | > 100 µM (inactive) | > 100 µM (inactive)
O=c1nc2n(CCO)c(-c3ccccc3)c(-c3ccccc3)nc-2c(=O)[nH]1 | > 100 µM (inactive) | > 100 µM (inactive) | > 100 µM (inactive) | > 100 µM (inactive) | > 100 µM (inactive) | 88.9 µM (inactive) | > 100 µM (inactive) | > 100 µM (inactive) | > 100 µM (inactive) | > 100 µM (inactive) | > 100 µM (inactive) | > 100 µM (inactive) | > 100 µM (inactive) | > 100 µM (inactive) | > 100 µM (inactive) | > 100 µM (inactive) | > 100 µM (inactive) | > 100 µM (inactive) | > 100 µM (inactive) | 
N/N=C(/C(=O)Nc1cccc(Cl)c1)C(C(=O)c1ccc(O)cc1O)C1OC(=O)c2ccccc21 (stereo not drawn) | > 100 µM (inactive) |  |  | > 100 µM (inactive) | > 100 µM (inactive) |  | > 100 µM (inactive) | > 100 µM (inactive) |  |  | 52.2 µM (inactive) | > 100 µM (inactive) |  | 90.6 µM (inactive) |  | > 100 µM (inactive) | > 100 µM (inactive) | > 100 µM (inactive) | 52.8 µM (inactive) | > 100 µM (inactive)
O=C(Oc1cc(=O)c(OC(=O)c2ccccc2)co1)c1ccccc1 | > 100 µM (inactive) | > 100 µM (inactive) | > 100 µM (inactive) | > 100 µM (inactive) | 65 µM (inactive) | > 100 µM (inactive) |  | > 100 µM (inactive) | > 100 µM (inactive) | > 100 µM (inactive) | > 100 µM (inactive) | 95.7 µM (inactive) | 91 µM (inactive) | 47.4 µM (inactive) | 72.9 µM (inactive) | 55.6 µM (inactive) | > 100 µM (inactive) | > 100 µM (inactive) | > 100 µM (inactive) | 
CN(C)CCNC(=O)c1ccc(Cl)c2cc3ccccc3nc12 | 0.424 µM (active) | 2.35 µM (inactive) | 0.991 µM (active) | 1.16 µM (inactive) | 0.408 µM (active) | 0.187 µM (active) | 0.553 µM (active) | 0.807 µM (active) | 1.05 µM (active) | 0.889 µM (active) | 0.218 µM (active) | 0.653 µM (active) | 0.807 µM (active) | 0.463 µM (active) | 1.07 µM (active) | 1.82 µM (inactive) | 2.01 µM (inactive) | 1.16 µM (inactive) | 0.652 µM (active) | 
CN(C(=O)C12C3C4(C(=O)O)C1(C(=O)N(C)C(C)(C)C)C1C2(C(=O)O)C3(C(=O)N(C)C(C)(C)C)C14C(=O)N(C)C(C)(C)C)C(C)(C)C (stereo not drawn) | > 100 µM (inactive) | > 100 µM (inactive) | > 100 µM (inactive) | > 100 µM (inactive) | > 100 µM (inactive) | > 100 µM (inactive) | > 100 µM (inactive) | > 100 µM (inactive) | > 100 µM (inactive) | > 100 µM (inactive) | > 100 µM (inactive) | > 100 µM (inactive) | > 100 µM (inactive) |  | > 100 µM (inactive) | > 100 µM (inactive) | > 100 µM (inactive) | > 100 µM (inactive) | > 100 µM (inactive) | 
N#Cc1c(NC(=S)NCc2ccccc2)sc2c1CCN(N1CCc3c(sc(NC(=S)NCc4ccccc4)c3C#N)C1)C2 | > 100 µM (inactive) | > 100 µM (inactive) | > 100 µM (inactive) | > 100 µM (inactive) | > 100 µM (inactive) | > 100 µM (inactive) | > 100 µM (inactive) | > 100 µM (inactive) | > 100 µM (inactive) | > 100 µM (inactive) | > 100 µM (inactive) | > 100 µM (inactive) | > 100 µM (inactive) |  | > 100 µM (inactive) | > 100 µM (inactive) | > 100 µM (inactive) | > 100 µM (inactive) | > 100 µM (inactive) | 
